Assay results reported in US20250339401A1, “METHODS AND MATERIALS FOR TREATMENT OF NEISSERIA GONORRHOEAE INFECTION” (Purdue Research Foundation, priority 2021, published 2025).
Converted amounts (≈) assume the structure as drawn.

Experiments:
Format in all cases: cell-based
[1] = test system: Neisseria gonorrhoeae 175; assay: MIC broth microdilution, N. gonorrhoeae 175
Protocol: (§1) The minimum inhibitory concentrations (MICs) of the tested compounds and control drugs; Azithromycin, Cefixime and Tetracycline (antibiotics) were determined using the broth microdilution method as described in previous reports with minor modifications against clinically-relevant Neisseria gonorrhea strains. Strains were grown on Brucella broth supplemented with yeast extract, neopeptone, hematin, pyridoxal and NAD at 37° C. for 24 hours in presence of 5% CO2. […] Compounds and control drugs were added in the first row of the 96-well plates and serially diluted with media containing bacteria. Plates were then, incubated aerobically at 37° C. in the presence of 5% CO2 for 24 hours.

[2] = test system: Neisseria gonorrhoeae 214; assay: MIC broth microdilution, N. gonorrhoeae 214
Protocol: as §1

[3] = test system: Neisseria gonorrhoeae 166; assay: MIC broth microdilution, N. gonorrhoeae 166
Protocol: as §1

[4] = test system: Neisseria gonorrhoeae 178; assay: MIC broth microdilution, N. gonorrhoeae 178
Protocol: as §1

[5] = test system: Neisseria gonorrhoeae isolate 191; assay: MIC broth microdilution, initial screening against N. gonorrhoeae isolate 191; conditions: 24 hours, 37° C., 5% CO2
Protocol: as §1

[6] = test system: Neisseria gonorrhoeae 188; assay: MIC broth microdilution, N. gonorrhoeae 188
Protocol: as §1

[7] = test system: Neisseria gonorrhoeae 172; assay: MIC broth microdilution, N. gonorrhoeae 172
Protocol: as §1

[8] = test system: Neisseria gonorrhoeae 194; assay: MIC broth microdilution, N. gonorrhoeae 194
Protocol: as §1

[9] = test system: Neisseria gonorrhoeae 165; assay: MIC broth microdilution, N. gonorrhoeae 165
Protocol: as §1

[10] = test system: Neisseria gonorrhoeae 170; assay: MIC broth microdilution, N. gonorrhoeae 170
Protocol: as §1

[11] = test system: Neisseria gonorrhoeae 169; assay: MIC broth microdilution, N. gonorrhoeae 169
Protocol: as §1

[12] = test system: Neisseria gonorrhoeae 167; assay: MIC broth microdilution, N. gonorrhoeae 167
Protocol: as §1

[13] = test system: Neisseria gonorrhoeae 171; assay: MIC broth microdilution, N. gonorrhoeae 171
Protocol: as §1

[14] = test system: Neisseria gonorrhoeae 202; assay: MIC broth microdilution, N. gonorrhoeae 202
Protocol: as §1

Row | MIC [1] | MIC [2] | MIC [3] | MIC [4] | MIC (Minimum inhibitory concentration) [5] | MIC [6] | MIC [7] | MIC [8] | MIC [9] | MIC [10] | MIC [11] | MIC [12] | MIC [13] | MIC [14] | Structure (SMILES)
1 | 16 µg/mL (≈ 21.4 µM) | 0.5 µg/mL (≈ 0.668 µM) | 2 µg/mL (≈ 2.67 µM) | 1 µg/mL (≈ 1.34 µM) | >128 | 2 µg/mL (≈ 2.67 µM) | > 128 µg/mL | 1 µg/mL (≈ 1.34 µM) | 1 µg/mL (≈ 1.34 µM) | 1 µg/mL (≈ 1.34 µM) | 1 µg/mL (≈ 1.34 µM) | 16 µg/mL (≈ 21.4 µM) | 0.25 µg/mL (≈ 0.334 µM) | 32 µg/mL (≈ 42.7 µM) | CC[C@H]1OC(=O)[C@H](C)[C@@H](O[C@H]2C[C@@](C)(OC)[C@@H](O)[C@H](C)O2)[C@H](C)[C@@H](O[C@@H]2O[C@H](C)C[C@H](N(C)C)[C@H]2O)[C@](C)(O)C[C@@H](C)CN(C)[C@H](C)[C@@H](O)[C@]1(C)O [Azithromycin]
2 | 0.03 µg/mL (≈ 0.0662 µM) | 0.25 µg/mL (≈ 0.551 µM) | 0.5 µg/mL (≈ 1.1 µM) | 0.25 µg/mL (≈ 0.551 µM) | 0.06 | 0.25 µg/mL (≈ 0.551 µM) | 0.06 µg/mL (≈ 0.132 µM) | 1 µg/mL (≈ 2.21 µM) | 0.25 µg/mL (≈ 0.551 µM) | 0.25 µg/mL (≈ 0.551 µM) | 0.25 µg/mL (≈ 0.551 µM) | 0.06 µg/mL (≈ 0.132 µM) | 0.25 µg/mL (≈ 0.551 µM) | 0.03 µg/mL (≈ 0.0662 µM) | C=CC1=C(C(=O)O)N2C(=O)[C@@H](NC(=O)/C(=N\OCC(=O)O)c3csc(N)n3)[C@H]2SC1 [Cefixime]

Row | Structure (SMILES) | MIC [1] | MIC [2] | MIC [3] | MIC [4] | MIC (Minimum inhibitory concentration) [5] | MIC [6] | MIC [7] | MIC [8] | MIC [9] | MIC [10] | MIC [11] | MIC [12] | MIC [13] | MIC [14]
3 | CN(C)[C@@H]1C(O)=C(C(N)=O)C(=O)[C@@]2(O)C(O)=C3C(=O)c4c(O)cccc4[C@@](C)(O)[C@H]3C[C@@H]12 [Tetracycline] | 1 µg/mL (≈ 2.25 µM) | 4 µg/mL (≈ 9 µM) | 2 µg/mL (≈ 4.5 µM) | 16 µg/mL (≈ 36 µM) | 1 | 2 µg/mL (≈ 4.5 µM) | 1 µg/mL (≈ 2.25 µM) | 1 µg/mL (≈ 2.25 µM) | 8 µg/mL (≈ 18 µM) | 4 µg/mL (≈ 9 µM) | 4 µg/mL (≈ 9 µM) | 1 µg/mL (≈ 2.25 µM) | 2 µg/mL (≈ 4.5 µM) | 1 µg/mL (≈ 2.25 µM)
